Read-outs that look alike come from different tables or passages of the source. Marks after values point to notes of the source that are not given here.
What was measured:
[1] = system: pBtk (Y223, Y551), pPLCy2; details: primary MCL and normal B cells
[2] = system: CD19+CD5+ cells of MCL patients; assay: flow cytometry phenotyping of PBMCs of MCL patients before (D1) and after one week (D8) of ibrutinib; format: in vivo, human
Experimental: Blood was drawn from MCL patients enrolled in PCYC-04753 or PCYC-1104 studies in the US in accordance with GCP guidelines provided by ICH and principles of the Declaration of Helsinki with informed consent and in compliance with the protocols approved by the relevant Institutional Review Board(s). The whole blood samples were drawn into sodium heparin CPT tubes (BD), mixed for 5 min then spun at 1500 rcf for 20 min at the collection sites. The samples were shipped overnight to Pharmacyclics with 36 hrs. In a laminar flow hood, the PBMCs were removed from the top layer of the tubes, washed with PBS, and frozen in 90% FBS+10% DMSO (Sigma, St Louis, Mo.) in liquid nitrogen until use.
Frozen PBMCs were thawed in a 37° C. water bath, resuspended in RPMI+10% FBS, and recovered in a 37° C., 5% CO2 incubator in 5 ml polypropylene tubes (BD-Falcon) for 2 hours before phenotyping analysis. The PBMCs were washed with PBS+2% FBS, pelleted and resuspended in PBS+2% FBS containing phenotyping surface antibodies. All staining cocktails were run in duplicate tubes. The cells were stained for 30 minutes, washed with PBS, pelleted at 1300 rpm for 5 min, then fixed in PBS+1.6% paraformaldehyde (Electron Microscopy Services, Hatfield, Pa.).
BD FACS Canto II (BD, San Jose, Calif.) was used for all flow cytometry collection. The instrument was maintained according to manufacturer's recommendations. CS&T beads (BD) are used daily for baseline and reproducibility measurements according to manufacturer's instructions. Phosphoflow assays were stained and performed as described. The above antibodies were used with BD CompBead Plus to establish compensation settings and antibody staining consistency. 10,000 CD19^+ cells were collected from each staining sample. The data was analyzed and quantified using FlowJo7.6 (Tree Star, Ashland, Oreg.).

Mino and Jekol cells = assay: chemokine and cytokine secretion of MCL cell lines after BCR activation or in stromal co-culture; format: cell-based, human; details: following BCR activation or in co-culture
primary MCL cells = assay: co-culture assay: pseudoemperipoliesis of primary MCL cells with M2 stromal cells; format: cell-based, human; details: 100 nM
Mino cells [3] = assay: actin polymerization in Mino cells (phalloidin); format: cell-based, human; details: 10 and 100 nM (p<0.001)
pBtk, pPLCy2 and pAkt = details: alone or in co-culture with M2 cells
[4] = system: subjects with B-cell malignancies
From the text: The dose-escalation portion of this open-label trial enrolled subjects with B-cell malignancies (histologies listed in Table 2, below) and is now completed.

Jekol and HBL1 cells = assay: adhesion assay, anti-IgM stimulated; details: Homo sapiens, HBL1, read-out: inhibition of anti-IgM stimulated adhesion onto fibronectin or VCAM1
primary MCL = assay: actin polymerization of primary MCL in co-culture; details: 100 nM (p<0.001)
Mino cells [5] = assay: adhesion assay, chemokine-mediated, Mino; details: Homo sapiens, read-out: inhibition of adhesion to VCAM1 or fibronectin following CXCL12 or CXCL13 activations
DHL-10 = assay: growth inhibition by PCI-32765, DHL-10; format: cell-based; details: Homo sapiens; DHL-10, DLBCL, GCB
DB = assay: growth inhibition by PCI-32765, DB; format: cell-based; details: Homo sapiens, DLBCL
[6] = system: B cell lymphoma derived cell lines; assay: growth inhibition in a subset of B cell lymphoma derived cell lines; format: cell-based; details: Homo sapiens, read-out: GI50 values, range
WSU-DLCL2 = assay: growth inhibition by PCI-32765, WSU-DLCL2; format: cell-based; details: Homo sapiens, WSUDLCL2; WSU-DLCL2, FL-transformed
[7] = system: Btk, PLCy2, Erk, JNK and Akt phosphorylation; assay: Btk signaling in MCL cell lines after anti-IgM, CXCL12 and CXCL13 stimulation; details: following anti-IgM, CXCL12 and CXCL13 stimulations
[8] = system: Mino, Jekol and JVM-1 cells; assay: migration assay, CXCL12-induced; details: Mino and Jekol more sensitive than JVM-1
[9] = system: relapsed/refractory subjects with MCL; assay: phase II study of PCI-32765 in relapsed/refractory MCL; details: for Discontinuation: Adverse event / Discontinuation: Disease Progression / Death on study: 560 mg/day
Granta-519 = assay: growth inhibition by PCI-32765, Granta-519; format: cell-based; details: Homo sapiens; Granta-519, Mantle cell
Mino cells [10] = assay: co-culture assay: migration of Mino cells beneath M2-10B4 stromal cells (pseudoemperipoliesis); format: cell-based, human; details: significant at 100 nM (p<0.01) and 1000 nM (p<0.001)

C=CC(=O)N1CCC[C@@H](n2nc(-c3ccc(Oc4ccccc4)cc3)c3c(N)ncnc32)C1 [PCI-32765, (R)-1-(3-(4-amino-3-(4-phenoxyphenyl)-1H-pyrazolo[3,4-d]pyrimidin-1-yl)piperidin-1-yl)prop-2-en-1-one]
concentrations inhibiting pBtk (Y223, Y551) and reducing pPLCy2 (Y759, Y1217) [1]: ≥ 10 nM
absolute count and percentage of CD19+CD5+ cells in the lymphocyte population ([2]; after one week of ibrutinib treatment, p<0.05): significantly increased
intracellular Ki67 expression ([2]; after treatment, p<0.05): significantly reduced
pErk expression in CD20+CD5+ cells ([2]; differences not statistically significant): reduced
surface expression of CXCR4 in the CD19+CD5+ population ([2]; following one week of drug treatment, p<0.05): significantly reduced
CD38+ cells among CD19+CD5+ cells ([2]; following treatment, p<0.01): significantly decreased
CD19+CD3− population of gated lymphocytes ([2]; illustrative patient, after one week of treatment, before 9.29%): 63%
CD19+CD5+ population ([2]; illustrative patient, after one week of treatment, before 84.4%): 98.8%
production of human IL-10, MDC, MIP-1α, MIP-1β, TNFα, CCL17 and CCL21 (Mino and Jekol cells): dose dependently and potently suppressed
pseudoemperipoliesis of primary MCL (hCD19+ cells) (primary MCL cells): inhibited
CXCL12-increased cortical actin of Mino cells (Mino cells [3]): dose-dependently and significantly inhibited
pBtk, pPLCy2 and pAkt in Mino cells (pBtk, pPLCy2 and pAkt): dose-dependently inhibited
CR ([4]; DLBCL (7 patients)): 0
ORR (ITT) ([4]; DLBCL (7 patients)): 29%
ORR (evaluable pts) ([4]; DLBCL (7 patients)): 29%
PD ([4]; DLBCL (7 patients)): 4
PR ([4]; DLBCL (7 patients)): 2
CR ([4]; FL (16 patients)): 3
ORR (ITT) ([4]; FL (16 patients)): 38%
ORR (evaluable pts) ([4]; FL (16 patients)): 46%
PD ([4]; FL (16 patients)): 4
PR ([4]; FL (16 patients)): 3
CR ([4]; MCL (9 patients)): 3
PD ([4]; MCL (9 patients)): 1
PR ([4]; MCL (9 patients)): 4
CR ([4]; MZL/MALT (4 patients)): 0
ORR (ITT) ([4]; MZL/MALT (4 patients)): 25%
ORR (evaluable pts) ([4]; MZL/MALT (4 patients)): 33%
PD ([4]; MZL/MALT (4 patients)): 1
PR ([4]; MZL/MALT (4 patients)): 1
ORR (ITT) ([4]; Overall (56 patients)): 54%
PD ([4]; Overall (56 patients)): 10
CR ([4]; WM (4 patients)): 0
PR ([4]; WM (4 patients)): 3
inhibition at 0.1 µM (Jekol and HBL1 cells): 50 to 70%
actin polymerization of primary MCL in co-culture (primary MCL): suppressed
inhibition at 0.1 µM (Mino cells [5]): 50 to 70%
GI50 (DHL-10): 3.7 µM
GI50 (DB): > 10 µM
GI50 [6]: 0.1 to 5.5 µM
GI50 (WSU-DLCL2): 0.5 µM
phosphorylation of Btk and downstream PLCy2, Erk, JNK and Akt [7]: inhibited
CXCL12-induced migration [8]: dose-dependently inhibited
Discontinuation: Adverse event ([9]; Bortezomib-Exposed (N = 27)): 1 (4) # (%)
Discontinuation: Disease Progression ([9]; Bortezomib-Exposed (N = 27)): 6 (22) # (%)
Death on study ([9]; Bortezomib-Exposed (N = 27), pneumonia): 1 (4) # (%)
Death on study ([9]; Bortezomib-Naïve (N = 41)): 0 (0) # (%)
Discontinuation: Adverse event ([9]; Bortezomib-Naïve (N = 41)): 2 (5) # (%)
Discontinuation: Disease Progression ([9]; Bortezomib-Naïve (N = 41)): 7 (17) # (%)
Death on study ([9]; Total (N = 68)): 1 (2) # (%)
Discontinuation: Adverse event ([9]; Total (N = 68)): 3 (4) # (%)
Discontinuation: Disease Progression ([9]; Total (N = 68)): 13 (19) # (%)
myelosuppression ([9]; during the study): No significant myelosuppression
GI50 (Granta-519): > 10 µM
migration of Mino cells beneath the stromal cells (Mino cells [10]): dose-dependently inhibited
